Data on 36 compounds can be found in patent publication US20240051956A1, “SOS1 INHIBITORS AND USES THEREOF” (QILU REGOR THERAPEUTICS INC., priority 2020, published 2024).

Experiment [1] concerns the target SOS1 and KRAS G12D (Homo sapiens (Human), UniProt Q07889). Description: KRAS::SOS1 AlphaScreen Binding Assay. The note with it: SOS1 (564-1049), KRAS G12D (1-169), GDP. From the text: a. KRAS::SOS1 AlphaScreen Binding Assay
Low IC50 values of given compounds are indicative of high potency of the SOS1 inhibitor compounds in this assay setting.
• GST-TEV-SOS1 (564-1049) and His-TEV-Avi-KRAS G12D (1-169) are purchased from Viva Biotech (Shanghai) Ltd. • GDP (Sigma, Cat. G7127) • AlphaLISA Glutathione Acceptor Beads (PerkinElmer, Cat. AL109C) • AlphaScreen Streptavidin Donor Beads (PerkinElmer, Cat. 6760002S) • Assay plates: ProxiPlate-384 Plus, White 384-shallow well Microplate (PerkinElmer, Cat. 6008280)
SOS1 inhibitor compounds are diluted to a final start concentration of […]. Serial dilutions of compounds are made using Tecan D300e Digital Dispenser in 9 concentrations with serial 1:3 dilutions. 100 nL of compound solution is transferred to the 384-well assay plate per well, covering a range between 1 μM and 0.15 nM minimum in duplicate. 10 nM (final assay concentration) KRAS G12D, 5 nM (final assay concentration) SOS1 and 10 μM (final assay concentration) GDP are mixed in assay buffer, and 5 μL of KRAS::SOS1 GDP mix is added into the assay plate to the 100 nL of compound solution (final dilution in the assay 1:100, final DMSO concentration 1%). After a 30 min incubation, AlphaLISA Glutathione Acceptor Beads and AlphaScreen Streptavidin Donor Beads are mixed in assay buffer at a concentration of 5 µg/mL (final assay concentration), and 5 μL of bead mix is added into the assay plate. Plates are kept at room temperature in a darkened incubator for 3 h. After a 3 h incubation, the signal is determined using Envision (PerkinElmer). The excitation wavelength is 680 nm, and emission 615 nm. IC50 values are calculated and analyzed using GraphPad Prism.
(Alpha assays give light when donor and acceptor beads are brought close together.)

Experiment [2] relates to NCI-H358. Briefly: Cell proliferation assay, 3D, CellTiter-Glo 3D. Format: cell-based, human. The note with it: Homo sapiens, 72 h; NCI-H358 (KRAS G12C), 3D ultra-low attachment, 3 days; read-out: anit-prolif. H358 IC50. As for the experimental part:
b. Cell Proliferation Assay
Low IC50 values are indicative of high potency of the compounds in this assay setting.
Cell proliferation assay is performed in three-dimensional (3D) ultra-low conditions with the human cell line NCI-H358, a human non-small cell lung cancer (NSCLC) cell line with a KRAS G12C mutation.
• 96-well Clear Round Bottom Ultra-Low Attachment Microplate (Corning, Cat. 7007) • 96-well Flat Clear Bottom White Polystyrene TC-treated Microplates (Corning, Cat. 3610) • RPMI-1640 Medium (Gibco, Cat. 22400105) • Fetal Bovine Serum (FBS) (Gibco, Cat. 10099141C) • 0.25% Trypsin-EDTA (Gibco, Cat. 25200056) • Penicillin-Streptomycin (Gibco, Cat. 15140122) • CellTiter-Glo 3D Cell Viability Assay (Promega, Cat. G9683)
NCI-H358 cells (ATCC, Cat. CRL-5807) are grown in cell culture flasks using RPMI medium supplemented with 10% FBS. Cells are incubated at 37° C. and 5% C02 in a humidified atmosphere, with sub-cultivation performed twice a week. Cells are trypsinized, counted and plated in 96-well ultra-low adhesion plates for 3D cell viability determination. The day after plating, serial dilutions of SOS1 inhibitor compounds are made using Tecan D300e Digital Dispenser to evaluate a concentration-dependent effect on cell viability. The concentration of the test compounds covers a range between 5 μM and 0.76 nM with serial 1:3 dilutions in 9 concentrations. 0.5 μL serial dilutions of the compounds are added in duplicates. 3 days later, the CellTiter-Glo 3D Cell Viability Assay is used to measure cell viability effects of SOS1 inhibitor compounds in 3D format. Luminescent intensity is determined using Envision (PerkinElmer). Data is analyzed and IC50 values are calculated using GraphPad Prism.

pIC50: −log10 of the molar value.

SOS1 and KRAS G12D, sequence (Q07889 564-1049, stated change not applied): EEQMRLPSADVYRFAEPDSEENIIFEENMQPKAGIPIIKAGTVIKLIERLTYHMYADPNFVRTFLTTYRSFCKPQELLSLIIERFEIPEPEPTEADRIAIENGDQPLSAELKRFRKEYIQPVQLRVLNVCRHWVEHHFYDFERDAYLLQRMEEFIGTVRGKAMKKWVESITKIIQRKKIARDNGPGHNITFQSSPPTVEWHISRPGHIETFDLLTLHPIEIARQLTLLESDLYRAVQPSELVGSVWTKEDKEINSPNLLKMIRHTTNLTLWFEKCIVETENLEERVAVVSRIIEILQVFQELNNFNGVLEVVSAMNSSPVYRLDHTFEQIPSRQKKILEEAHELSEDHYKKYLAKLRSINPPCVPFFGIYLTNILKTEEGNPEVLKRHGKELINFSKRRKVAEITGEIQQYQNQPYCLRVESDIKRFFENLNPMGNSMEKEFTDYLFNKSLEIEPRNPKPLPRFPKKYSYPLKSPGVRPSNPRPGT

For orientation: pIC50 means the IC50 on a negative log10 scale, so that one unit is a factor of ten. Take `COC1CCN(n2cc3c(N[C@H](C)c4cccc(C(F)F)c4F)nc(C)nc3cc2=O)CC1` [Example 7]: the pIC50 was no less than 7.82 in experiment [1] and 6.30 to 7.00 in experiment [2].

With `CC(=O)N1CCN(n2cc3c(N[C@H](C)c4cccc(C(F)F)c4F)nc(C)nc3cc2=O)CC1` [Example 11, 6-(4-acetylpiperazin-1-yl)-4-[[(1R)-1-[3-(difluoromethyl)-2-fluoro-phenyl]ethyl]amino]-2-methyl-pyrido[4,3-d]pyrimidin-7-one], the results for the pIC50 in experiment [1] and in experiment [2] were no less than 7.82 and 6.00 to 6.30, respectively.

As for `Cc1nc(N[C@H](C)c2cccc(C(F)F)c2F)c2cn(N3CCOCC3)c(=O)c(-c3ccc(C(F)(F)F)nc3)c2n1` [Example 60], the pIC50 in experiment [1] was 6.82 to 7.82; in experiment [2], no less than 7.00.

Take `Cc1nc(N[C@H](C)c2cccc(C(F)F)c2F)c2cn(N3CCCOCC3)c(=O)cc2n1` [Example 6]: the pIC50 in experiment [1] is no less than 7.82; in experiment [2], no less than 7.00.

As to `Cc1nc(N[C@H](C)c2cccc(C(F)F)c2F)c2cn(N3CCOCC3)c(=O)c(-c3ccc(C#N)nc3)c2n1` [Example 75, (R)-5-(4-((1-(3-(difluoromethyl)-2-fluorophenyl)ethyl)amino)-2-methyl-6-morpholino-7-oxo-6,7-dihydropyrido[4,3-]pyrimidin-8-yl)picolinonitrile], the pIC50 in experiment [1] was no less than 7.82; in experiment [2] it was no less than 7.00.

Consider `Cc1nc(N[C@H](C)c2cc(N)cc(C(F)(F)F)c2)c2cn(N3CCOCC3)c(=O)cc2n1` [Example 16, 4-[[(1R)-1-[3-amino-5-(trifluoromethyl)phenyl]ethyl]amino]-2-methyl-6-morpholino-pyrido[4,3-d]pyrimidin-7-one], for which the pIC50 was 6.82 to 7.82 in experiment [1] and 6.30 to 7.00 in experiment [2].

Turning to `Cc1nc(N[C@H](C)c2cccc(C(F)F)c2F)c2cn(N3CCOCC3)c(=O)c(-c3ccc(C#N)c(F)c3)c2n1` [Example 62], the pIC50 was 6.82 to 7.82 in experiment [1] and 6.30 to 7.00 in experiment [2].

For the compound `Cc1nc(N[C@H](C)c2cccc(C(F)F)c2F)c2cn(N3CCOCC3)c(=O)c(-c3ccc4nncn4c3)c2n1` [Example 72], the values for the pIC50 in experiment [1] and in experiment [2] were no less than 7.82 and 6.30 to 7.00, respectively.

Consider `Cc1nc(N[C@H](C)c2cccc(C(F)F)c2F)c2cn(N3CC4(COC4)C3)c(=O)cc2n1` [Example 9], for which the pIC50 in experiment [1] was no less than 7.82; in experiment [2], 6.30 to 7.00.

Take `Cc1nc(N[C@H](C)c2cccc(C(F)(F)F)c2)c2cn(N3CCOCC3)c(=O)c(F)c2n1` [Example 33]: the pIC50 in experiment [1] was no less than 7.82; in experiment [2], 6.30 to 7.00.

As to `Cc1nc(N[C@H](C)c2cccc(C(F)F)c2F)c2cn(N3CCOCC3)c(=O)c(-c3ccc(P(C)(C)=O)nc3)c2n1` [Example 71], the pIC50 in experiment [1] was no less than 7.82; in experiment [2], 6.30 to 7.00.

`Cc1nc(N[C@H](C)c2cccc(C(F)F)c2F)c2cn(N3CCOCC3)c(=O)c(-c3ccc(C(N)=O)nc3)c2n1` [Example 80] gave a pIC50 in experiment [1] of no less than 7.82.

For `Cc1nc(N[C@H](C)c2cccc(C(F)F)c2F)c2cn(N3CCN(C(=O)CC#N)CC3)c(=O)cc2n1` [Example 14], the values for the pIC50 in experiment [1] and in experiment [2] were no less than 7.82 and 6.00 to 6.30, respectively.

Take `Cc1nc(N[C@H](C)c2cccc(C(F)(F)F)c2)c2cn(N3CCOCC3)c(=O)cc2n1` [Example 20]: the values for the pIC50 in experiment [1] and in experiment [2] were no less than 7.82 and no less than 7.00, respectively.

Regarding `Cc1nc(N[C@H](C)c2cccc(C(F)F)c2F)c2cn(N3CCOCC3)c(=O)c(-c3ccncc3)c2n1` [Example 46], the pIC50 in experiment [1] was no less than 7.82; in experiment [2], no less than 7.00.

Regarding `Cc1nc(N[C@H](C)c2cccc(C(F)F)c2F)c2cn(N3CCOCC3)c(=O)c(-c3cnc4nccn4c3)c2n1` [Example 84], in experiment [1], the pIC50 is no less than 7.82.

In the case of `Cc1nc(N[C@H](C)c2cccc(C(F)F)c2F)c2cn(N3CCS(=O)(=O)CC3)c(=O)cc2n1` [Example 36], the pIC50 in experiment [1] was no less than 7.82; in experiment [2], 6.30 to 7.00.

In the case of `CNCc1ccccc1-c1csc([C@@H](C)Nc2nc(C)nc3cc(=O)n(N4CCOCC4)cc23)c1` [Example 77, 2-methyl-4-[[(1R)-1-[4-[2-(methylaminomethyl)phenyl]-2-thienyl]ethyl]amino]-6-morpholino-pyrido[4,3-d]pyrimidin-7-one], the pIC50 is no less than 7.82 in experiment [1] and 6.30 to 7.00 in experiment [2].

Take `Cc1nc(N[C@H](C)c2cccc(C(F)F)c2F)c2cn(N3CCOCC3)c(=O)c(-c3ccnc(C#N)c3)c2n1` [Example 68]: the pIC50 in experiment [1] was no less than 7.82; in experiment [2] it was 6.30 to 7.00.

Take `Cc1nc(N[C@H](C)c2cccc(C(F)F)c2F)c2cn(N3CCOCC3)c(=O)c(-c3cn(CC(F)F)cn3)c2n1` [Example 69]: the pIC50 was no less than 7.82 in experiment [1] and no less than 7.00 in experiment [2].

`Cc1nc(N[C@H](C)c2cccc(C(F)F)c2F)c2cn(N3CCOCC3)c(=O)c(-c3ccc(=O)[nH]c3)c2n1` [Example 49]: the pIC50 was no less than 7.82 in experiment [1] and 6.00 to 6.30 in experiment [2].

Turning to `Cc1nc(N[C@H](C)c2cccc(C(F)F)c2F)c2cn(N3CCOCC3)c(=O)c(C3CC3)c2n1` [Example 42, 8-cyclopropyl-4-[[(1R)-1-[3-(difluoromethyl)-2-fluoro-phenyl]ethyl]amino]-2-methyl-6-morpholino-pyrido[4,3-d]pyrimidin-7-one], the pIC50 in experiment [1] is no less than 7.82; in experiment [2], 6.30 to 7.00.

As to `COC(=O)c1ccc(-c2c(=O)n(N3CCOCC3)cc3c(N[C@H](C)c4cccc(C(F)F)c4F)nc(C)nc23)cn1` [Example 79], the pIC50 in experiment [1] is no less than 7.82.

`Cc1nc(N[C@H](C)c2cccc(C(F)F)c2F)c2cn(-n3cnnc3)c(=O)c(F)c2n1` [Example 87] gave a pIC50 in experiment [1] of 6.00 to 6.82.

In the case of `COc1ccc(-c2c(=O)n(N3CCOCC3)cc3c(N[C@H](C)c4cccc(C(F)F)c4F)nc(C)nc23)cn1` [Example 58], the pIC50 is no less than 7.82 in experiment [1] and no less than 7.00 in experiment [2].

With `Cc1nc(N[C@H](C)c2cccc(C(F)F)c2F)c2cn(N3CCC(F)(F)CC3)c(=O)cc2n1` [Example 3], the results for the pIC50 in experiment [1] and in experiment [2] were no less than 7.82 and 6.30 to 7.00, respectively.

Take `Cc1nc(N[C@H](C)c2cccc(C(F)F)c2F)c2cn(N3CCOCC3)c(=O)c(-c3cccnc3)c2n1` [Example 45]: the results for the pIC50 in experiment [1] and in experiment [2] were no less than 7.82 and no less than 7.00, respectively.

In experiment [1], `Cc1nc(NCc2cccc(C(F)(F)F)c2)c2cn(N3CCOCC3)c(=O)cc2n1` [Example 26] showed a pIC50 of 6.82 to 7.82.

For `Cc1nc(NC(C)c2cc(C(F)F)cc(C(F)F)c2)c2cn(N3CCOCC3)c(=O)cc2n1` (centres unmarked) [Example 28], in experiment [1], the pIC50 was 6.00 to 6.82.

Compound `Cc1nc(N[C@H](C)c2cccc(C(F)F)c2F)c2cn(N3CCOCC3)c(=O)c(-c3ccc(C(=O)O)nc3)c2n1` [Example 78] showed a pIC50 in experiment [1] of no less than 7.82.

Compound `Cc1nc(N[C@H](C)c2cccc(C(F)(F)CO)c2)c2cn(N3CCOCC3)c(=O)c(-c3ccc(C#N)nc3)c2n1` [Example 82] had a pIC50 in experiment [1] of no less than 7.82.

On to `Cc1nc(N[C@H](C)c2cc(N)cc(C(F)(F)F)c2)c2cn(N3CCOCC3)c(=O)c(-c3ccc(C#N)nc3)c2n1` [Example 83], for which the pIC50 in experiment [1] is no less than 7.82.

On to `Cc1nc(NC(C)C2CC2)c2cn(N3CCOCC3)c(=O)cc2n1` (centres unmarked) [Example 23], for which the pIC50 in experiment [1] is less than 6.00.

For `Cc1nc(N[C@H](C)c2cccc(C(F)F)c2F)c2cn(N3CCOCC3)c(=O)c(C3=CCS(=O)(=O)CC3)c2n1` [Example 85], the pIC50 in experiment [1] was no less than 7.82.

With `Cc1nc(N[C@H](C)c2cccc(C(F)F)c2F)c2cn(N3CCOCC3)c(=O)c(-c3ccn[nH]3)c2n1` [Example 81], the pIC50 in experiment [1] is no less than 7.82.

`Cc1nc(NCc2ccc3cc[nH]c3c2)c2cn(N3CCOCC3)c(=O)cc2n1` [Example 27] gave a pIC50 in experiment [1] of less than 6.00.
